# Experimental data published in article PMC12708883 (Frontiers in Microbiology, 2025).
# T1: YhjE (Escherichia coli, UniProt P37643)
# T1 sequence (P37643 1-440): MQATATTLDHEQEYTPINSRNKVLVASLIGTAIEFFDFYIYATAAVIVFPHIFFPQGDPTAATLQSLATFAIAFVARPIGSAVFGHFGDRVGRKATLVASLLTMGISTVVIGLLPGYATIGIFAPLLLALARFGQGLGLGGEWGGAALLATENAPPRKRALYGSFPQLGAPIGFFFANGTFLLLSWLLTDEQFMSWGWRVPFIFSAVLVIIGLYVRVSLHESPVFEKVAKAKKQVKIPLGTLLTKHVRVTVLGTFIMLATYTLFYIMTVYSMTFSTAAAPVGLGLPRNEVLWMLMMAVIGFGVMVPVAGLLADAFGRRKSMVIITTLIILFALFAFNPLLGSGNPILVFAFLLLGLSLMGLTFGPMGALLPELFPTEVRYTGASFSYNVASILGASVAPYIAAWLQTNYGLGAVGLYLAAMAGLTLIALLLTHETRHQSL
# Experiments:
# [1] = target: YhjE (Escherichia coli, UniProt P37643, P55S); assay: radiolabelled uptake into whole cells, […] min; assay type: cell-based; conditions: 50 μM substrate, M9 + 0.2% glucose, 37 °C; B2933 with mutant pBR-yhjE; labelled compound
# [2] = target: T2, BrnQ (Escherichia coli, UniProt P0AD99); assay: radiolabelled uptake into whole cells, […] min; assay type: cell-based; conditions: sole carrier strain, M9 + 0.2% glucose, 37 °C; labelled compound
# T2 construct: native chromosomal gene, sole carrier in livKHMGF yhjE double mutant cells
# [3] = target: YhjE (Escherichia coli, UniProt P37643, M359I); assay: radiolabelled uptake into whole cells, […] min; assay type: cell-based; conditions: 50 μM substrate, M9 + 0.2% glucose, 37 °C; B2933 with mutant pBR-yhjE; labelled compound
# [4] = target: T3, LIV-I (LivJFGHM) (Escherichia coli, UniProt P0AD96); assay: radiolabelled uptake into whole cells, […] min; assay type: cell-based; conditions: sole carrier strain, M9 + 0.2% glucose, 37 °C; labelled compound
# T3 construct: gene livJ; native chromosomal genes, sole carrier in brnQ yhjE double mutant cells
# [5] = target: YhjE (Escherichia coli, UniProt P37643, T273I); assay: radiolabelled uptake into whole cells, […] min; assay type: cell-based; conditions: 50 μM substrate, M9 + 0.2% glucose, 37 °C; B2933 with mutant pBR-yhjE; labelled compound
# [6] = target: YhjE (Escherichia coli, UniProt P37643, S271F/V290M); assay: radiolabelled uptake into whole cells, […] min; assay type: cell-based; conditions: 50 μM substrate, M9 + 0.2% glucose, 37 °C; B2933 with mutant pBR-yhjE; labelled compound
# [7] = target: YhjE (Escherichia coli, UniProt P37643, T276I); assay: radiolabelled uptake into whole cells, […] min; assay type: cell-based; conditions: 50 μM substrate, M9 + 0.2% glucose, 37 °C; B2933 with mutant pBR-yhjE; labelled compound
# [8] = target: T1, YhjE; assay: inhibition of L-[3H]isoleucine uptake into whole cells, […] min; assay type: cell-based; conditions: 50 μM L-[3H]isoleucine, M9 + 0.2% glucose, 37 °C; B2394[pBR-yhjE]; single replicate
# [9] = substrate: CC(C)[C@H](N)C(=O)O; assay: radiolabelled uptake into whole cells; assay type: cell-based, Escherichia coli; conditions: M9 + 0.2% glucose, 37 °C, B2933[pUC-yhjE], proton symport, labelled compound
# [10] = substrate: CC[C@H](C)[C@H](N)C(=O)O; assay: radiolabelled uptake into whole cells; assay type: cell-based, Escherichia coli; conditions: M9 + 0.2% glucose, 37 °C, B2933[pUC-yhjE], proton symport, labelled compound
# Chain of YhjE (Escherichia coli, UniProt P37643, T273I) (P37643 whole entry T273I): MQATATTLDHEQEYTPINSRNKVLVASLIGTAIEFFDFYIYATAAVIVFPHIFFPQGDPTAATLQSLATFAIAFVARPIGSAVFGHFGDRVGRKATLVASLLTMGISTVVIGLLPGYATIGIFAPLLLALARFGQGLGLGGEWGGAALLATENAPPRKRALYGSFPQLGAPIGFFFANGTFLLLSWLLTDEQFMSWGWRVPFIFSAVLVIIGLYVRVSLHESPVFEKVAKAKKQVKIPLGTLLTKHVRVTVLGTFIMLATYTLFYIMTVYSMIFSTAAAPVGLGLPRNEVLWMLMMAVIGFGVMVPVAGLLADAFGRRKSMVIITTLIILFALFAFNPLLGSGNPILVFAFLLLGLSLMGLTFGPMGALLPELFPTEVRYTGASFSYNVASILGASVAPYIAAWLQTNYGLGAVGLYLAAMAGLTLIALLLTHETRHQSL
# Chain of YhjE (Escherichia coli, UniProt P37643, M359I) (P37643 whole entry M359I): as the sequence (P37643 whole entry T273I) above, with I273T, M359I counted along it
# T2 sequence (P0AD99 whole entry): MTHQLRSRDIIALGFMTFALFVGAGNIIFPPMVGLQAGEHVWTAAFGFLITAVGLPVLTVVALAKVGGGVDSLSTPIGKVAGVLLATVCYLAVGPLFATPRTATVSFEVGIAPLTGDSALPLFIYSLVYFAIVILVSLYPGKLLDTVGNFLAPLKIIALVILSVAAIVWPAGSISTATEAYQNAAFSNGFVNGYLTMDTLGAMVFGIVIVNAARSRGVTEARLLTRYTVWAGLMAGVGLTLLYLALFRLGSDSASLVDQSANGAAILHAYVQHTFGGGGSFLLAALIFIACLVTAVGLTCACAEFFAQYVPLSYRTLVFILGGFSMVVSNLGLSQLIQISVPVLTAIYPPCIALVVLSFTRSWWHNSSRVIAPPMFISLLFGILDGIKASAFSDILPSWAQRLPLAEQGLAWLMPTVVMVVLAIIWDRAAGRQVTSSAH
# Chain of YhjE (Escherichia coli, UniProt P37643, T276I) (P37643 whole entry T276I): as the sequence (P37643 whole entry T273I) above, with I273T, T276I counted along it
# Chain of YhjE (Escherichia coli, UniProt P37643, S271F/V290M) (P37643 whole entry S271F/V290M): as the sequence (P37643 whole entry T273I) above, with S271F, I273T, V290M counted along it
# Chain of YhjE (Escherichia coli, UniProt P37643, P55S) (P37643 whole entry P55S): as the sequence (P37643 whole entry T273I) above, with P55S, I273T counted along it
# T3 sequence (P0AD96 24-367): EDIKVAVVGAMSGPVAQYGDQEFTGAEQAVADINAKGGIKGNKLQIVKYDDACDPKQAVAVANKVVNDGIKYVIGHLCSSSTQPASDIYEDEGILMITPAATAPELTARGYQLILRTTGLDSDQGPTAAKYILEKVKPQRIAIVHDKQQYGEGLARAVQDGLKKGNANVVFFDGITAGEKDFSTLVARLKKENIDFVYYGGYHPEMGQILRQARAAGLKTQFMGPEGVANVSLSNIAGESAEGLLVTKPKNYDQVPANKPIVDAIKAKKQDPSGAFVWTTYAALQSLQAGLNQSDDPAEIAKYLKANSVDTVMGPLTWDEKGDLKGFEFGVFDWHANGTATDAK
# T3 sequence (P0AEX7 whole entry partner): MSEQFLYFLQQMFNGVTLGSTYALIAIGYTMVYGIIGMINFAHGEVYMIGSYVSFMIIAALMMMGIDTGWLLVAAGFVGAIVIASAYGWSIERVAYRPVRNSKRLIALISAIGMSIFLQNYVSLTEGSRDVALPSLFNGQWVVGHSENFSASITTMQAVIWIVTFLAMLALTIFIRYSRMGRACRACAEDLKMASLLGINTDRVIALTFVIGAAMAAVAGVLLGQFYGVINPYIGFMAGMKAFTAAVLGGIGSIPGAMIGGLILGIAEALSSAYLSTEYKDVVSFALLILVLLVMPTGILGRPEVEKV
# T3 sequence (P22729 whole entry partner): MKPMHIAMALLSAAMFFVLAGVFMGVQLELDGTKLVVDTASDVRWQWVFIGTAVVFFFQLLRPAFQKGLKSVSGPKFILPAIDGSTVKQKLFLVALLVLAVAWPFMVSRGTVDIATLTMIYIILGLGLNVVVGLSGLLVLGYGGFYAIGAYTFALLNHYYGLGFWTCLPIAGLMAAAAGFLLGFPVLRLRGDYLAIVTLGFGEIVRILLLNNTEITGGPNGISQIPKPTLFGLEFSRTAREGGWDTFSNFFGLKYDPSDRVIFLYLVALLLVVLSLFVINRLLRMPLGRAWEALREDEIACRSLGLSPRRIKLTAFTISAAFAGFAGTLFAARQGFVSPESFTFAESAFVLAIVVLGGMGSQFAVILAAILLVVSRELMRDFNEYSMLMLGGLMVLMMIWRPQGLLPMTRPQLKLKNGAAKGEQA
# T3 sequence (P22731 whole entry partner): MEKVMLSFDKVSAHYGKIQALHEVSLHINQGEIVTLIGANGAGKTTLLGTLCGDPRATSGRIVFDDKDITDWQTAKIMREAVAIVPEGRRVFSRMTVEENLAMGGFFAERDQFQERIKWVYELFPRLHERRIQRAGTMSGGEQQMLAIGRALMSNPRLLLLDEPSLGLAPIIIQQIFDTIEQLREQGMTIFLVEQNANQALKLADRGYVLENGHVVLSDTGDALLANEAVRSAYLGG
# T3 sequence (P0A9S7 whole entry partner): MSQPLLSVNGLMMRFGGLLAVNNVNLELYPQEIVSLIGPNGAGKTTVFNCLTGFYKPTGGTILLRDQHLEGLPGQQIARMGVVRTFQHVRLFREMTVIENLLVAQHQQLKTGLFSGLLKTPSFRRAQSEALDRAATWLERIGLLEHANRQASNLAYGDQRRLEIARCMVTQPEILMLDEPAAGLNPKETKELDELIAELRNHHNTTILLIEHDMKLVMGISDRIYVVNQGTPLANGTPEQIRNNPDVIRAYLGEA
Molecule,uptake rate [1],uptake rate [2],uptake rate [3],uptake rate [5],uptake rate [6],uptake rate [7],% inhibition at 30-fold molar excess [8],also measured
CC[C@H](C)[C@H](N)C(=O)O [L-isoleucine],L-isoleucine uptake was concomitantly reduced,"Comparison of L-isoleucine–specific activity of YhjE, LIV-I, and BrnQ",L-isoleucine uptake was concomitantly reduced,L-isoleucine uptake was concomitantly reduced,L-isoleucine uptake was concomitantly reduced,L-isoleucine uptake was concomitantly reduced,–,"uptake rate [4]: Comparison of L-isoleucine–specific activity of YhjE, LIV-I, and BrnQ"
N[C@@H](Cc1ccc(O)cc1)C(=O)O [L-tyrosine],–,–,–,–,–,–,"L-tyrosine and L-cysteine, which are structurally unrelated to branched-chain amino acids, produced pronounced inhibitory effects",–
CC(C)[C@H](N)C(=O)O [L-valine],–,"Comparison of L-valine–specific activity of YhjE, LIV-I, and BrnQ",–,–,–,–,–,–
N[C@@H](CS)C(=O)O [L-cysteine],–,–,–,–,–,–,"L-tyrosine and L-cysteine, which are structurally unrelated to branched-chain amino acids, produced pronounced inhibitory effects",–
CC(C)C[C@H](N)C(=O)O [L-leucine],"In every case, L-leucine uptake was elevated relative to cells harboring the wild-type pBR-yhjE",–,YhjE M359I variant exhibited L-leucine transport activity more than twofold higher than the wild type,"In every case, L-leucine uptake was elevated relative to cells harboring the wild-type pBR-yhjE","In every case, L-leucine uptake was elevated relative to cells harboring the wild-type pBR-yhjE",The lowest effect was observed for the T276I substitution,–,–
YhjE (Escherichia coli K-12) (protein) MQATATTLDHEQEYTPINSRNKVLVASLIGTAIEFFDFYIYATAAVIVFPHIFFPQGDPTAATLQSLATFAIAFVARPIGSAVFGHFGDRVGRKATLVASLLTMGISTVVIGLLPGYATIGIFAPLLLALARFGQGLGLGGEWGGAALLATENAPPRKRALYGSFPQLGAPIGFFFANGTFLLLSWLLTDEQFMSWGWRVPFIFSAVLVIIGLYVRVSLHESPVFEKVAKAKKQVKIPLGTLLTKHVRVTVLGTFIMLATYTLFYIMTVYSMTFSTAAAPVGLGLPRNEVLWMLMMAVIGFGVMVPVAGLLADAFGRRKSMVIITTLIILFALFAFNPLLGSGNPILVFAFLLLGLSLMGLTFGPMGALLPELFPTEVRYTGASFSYNVASILGASVAPYIAAWLQTNYGLGAVGLYLAAMAGLTLIALLLTHETRHQSL,–,–,–,–,–,–,–,Km [9]: 86.7 µM; Km [10]: 70.5 µM
